pEC50: −log10 of the molar value. Activity calls are given as the source filed them. No cut-off for these calls is given here.
Legend:
Format in all cases: cell-based
[1] = target: T1, Protein cereblon/Tyrosine-protein kinase BTK (Homo sapiens, UniProt Q06187+Q96SW2); test: PROTAC activity at CRBN/BTK in human Ramos cells assessed as induction of BTK degradation at 100 nM incubated for 24 hrs by Western blot analysis relative to control
Target sequence in this assay (Q06187 2-659 limits assumed): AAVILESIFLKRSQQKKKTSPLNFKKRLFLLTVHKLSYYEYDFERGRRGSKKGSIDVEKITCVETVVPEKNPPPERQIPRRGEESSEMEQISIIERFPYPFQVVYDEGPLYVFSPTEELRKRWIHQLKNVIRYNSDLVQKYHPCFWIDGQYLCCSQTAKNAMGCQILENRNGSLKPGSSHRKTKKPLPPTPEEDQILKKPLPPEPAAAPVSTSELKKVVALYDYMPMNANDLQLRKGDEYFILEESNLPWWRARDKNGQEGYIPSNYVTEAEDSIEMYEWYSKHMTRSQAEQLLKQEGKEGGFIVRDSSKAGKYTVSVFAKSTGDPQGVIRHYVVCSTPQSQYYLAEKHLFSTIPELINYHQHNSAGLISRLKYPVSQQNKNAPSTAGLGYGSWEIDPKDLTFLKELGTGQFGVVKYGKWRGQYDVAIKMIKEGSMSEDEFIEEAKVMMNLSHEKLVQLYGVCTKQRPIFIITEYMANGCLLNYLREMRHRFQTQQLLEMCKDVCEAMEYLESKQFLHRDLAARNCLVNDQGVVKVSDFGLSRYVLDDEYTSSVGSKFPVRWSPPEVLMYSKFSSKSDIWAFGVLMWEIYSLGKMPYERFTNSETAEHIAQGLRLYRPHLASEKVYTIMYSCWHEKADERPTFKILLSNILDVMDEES
Target sequence in this assay (Q96SW2 whole entry partner): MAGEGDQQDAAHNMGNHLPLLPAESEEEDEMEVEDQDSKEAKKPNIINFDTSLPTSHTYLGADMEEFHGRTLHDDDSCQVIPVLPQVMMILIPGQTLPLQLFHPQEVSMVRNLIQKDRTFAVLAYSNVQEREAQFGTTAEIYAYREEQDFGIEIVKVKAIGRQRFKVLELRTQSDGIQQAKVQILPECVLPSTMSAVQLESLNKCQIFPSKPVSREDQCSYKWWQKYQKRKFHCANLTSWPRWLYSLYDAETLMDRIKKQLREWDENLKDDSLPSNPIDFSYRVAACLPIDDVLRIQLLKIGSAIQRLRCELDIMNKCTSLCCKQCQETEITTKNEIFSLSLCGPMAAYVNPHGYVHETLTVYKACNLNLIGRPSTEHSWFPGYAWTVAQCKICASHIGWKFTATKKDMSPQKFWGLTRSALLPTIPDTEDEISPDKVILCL

[2] = target: T1, Protein cereblon/Tyrosine-protein kinase BTK; test: PROTAC activity at CRBN/BTK in human Ramos cells assessed as induction of BTK degradation incubated for 24 hrs by Western blot analysis
Target sequence in this assay (Q06187 whole entry): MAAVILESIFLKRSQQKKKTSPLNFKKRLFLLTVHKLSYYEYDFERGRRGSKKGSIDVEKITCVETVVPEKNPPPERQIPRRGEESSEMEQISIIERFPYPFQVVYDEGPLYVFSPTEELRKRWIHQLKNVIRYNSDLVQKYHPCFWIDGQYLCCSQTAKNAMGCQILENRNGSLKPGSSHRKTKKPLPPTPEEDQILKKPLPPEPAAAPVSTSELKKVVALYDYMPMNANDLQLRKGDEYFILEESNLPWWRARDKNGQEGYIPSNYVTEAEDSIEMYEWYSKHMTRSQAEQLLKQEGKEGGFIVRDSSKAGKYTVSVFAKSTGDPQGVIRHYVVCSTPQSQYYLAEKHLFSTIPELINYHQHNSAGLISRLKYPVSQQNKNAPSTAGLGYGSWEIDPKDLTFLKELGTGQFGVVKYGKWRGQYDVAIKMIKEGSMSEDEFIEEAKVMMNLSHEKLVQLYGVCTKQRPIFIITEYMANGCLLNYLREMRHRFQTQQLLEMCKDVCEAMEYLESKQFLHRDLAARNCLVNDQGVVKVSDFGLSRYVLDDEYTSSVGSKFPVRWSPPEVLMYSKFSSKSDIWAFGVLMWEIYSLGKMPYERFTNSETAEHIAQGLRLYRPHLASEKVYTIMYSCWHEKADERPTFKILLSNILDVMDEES
Target sequence in this assay (Q96SW2 whole entry): as the sequence (Q96SW2 whole entry partner) above

[3] = target: T1, Protein cereblon/Tyrosine-protein kinase BTK; test: PROTAC activity at CRBN/BTK in human Ramos cells assessed as induction of BTK degradation by measuring maximal efficacy incubated for 24 hrs by Western blot analysis relative to control
Target sequence in this assay (Q06187 2-659 limits assumed): as the sequence (Q06187 2-659 limits assumed) above
Target sequence in this assay (Q96SW2 whole entry partner): as the sequence (Q96SW2 whole entry partner) above

[4] = target: T1, Protein cereblon/Tyrosine-protein kinase BTK; test: PROTAC activity at CRBN/BTK in human Ramos cells assessed as hook effect at 10000 nM incubated for 24 hrs by Western blot analysis
Target sequence in this assay (Q06187 2-659 limits assumed): as the sequence (Q06187 2-659 limits assumed) above
Target sequence in this assay (Q96SW2 whole entry partner): as the sequence (Q96SW2 whole entry partner) above

[5] = target: T1, Protein cereblon/Tyrosine-protein kinase BTK; test: PROTAC activity at CRBN/BTK in human MINO cells assessed as induction of BTK degradation incubated for 24 hrs by Western blot analysis
Target sequence in this assay (Q06187 whole entry): as the sequence (Q06187 whole entry) above
Target sequence in this assay (Q96SW2 whole entry): as the sequence (Q96SW2 whole entry partner) above

[6] = target: T1, Protein cereblon/Tyrosine-protein kinase BTK; test: PROTAC activity at CRBN/BTK in human MINO cells assessed as induction of BTK degradation by measuring maximal efficacy incubated for 24 hrs by Western blot analysis relative to control
Target sequence in this assay (Q06187 2-659 limits assumed): as the sequence (Q06187 2-659 limits assumed) above
Target sequence in this assay (Q96SW2 whole entry partner): as the sequence (Q96SW2 whole entry partner) above

[7] = target: T1, Protein cereblon/Tyrosine-protein kinase BTK; test: PROTAC activity at CRBN/BTK in human MINO cells assessed as hook effect upto 10000 nM incubated for 24 hrs by Western blot analysis
Target sequence in this assay (Q06187 2-659 limits assumed): as the sequence (Q06187 2-659 limits assumed) above
Target sequence in this assay (Q96SW2 whole entry partner): as the sequence (Q96SW2 whole entry partner) above

[8] = target: T1, Protein cereblon/Tyrosine-protein kinase BTK; test: PROTAC activity at CRBN/BTK in human Ramos cells assessed as induction of BTK degradation at 100 nM measured within 4 hrs by Western blot analysis
Target sequence in this assay (Q06187 2-659 limits assumed): as the sequence (Q06187 2-659 limits assumed) above
Target sequence in this assay (Q96SW2 whole entry partner): as the sequence (Q96SW2 whole entry partner) above

[9] = target: T1, Protein cereblon/Tyrosine-protein kinase BTK; test: PROTAC activity at CRBN/BTK in human Ramos cells assessed as induction of BTK degradation at 100 nM measured after 8 hrs by Western blot analysis relative to control
[10] = target: T1, Protein cereblon/Tyrosine-protein kinase BTK; test: PROTAC activity at CRBN/BTK in human Ramos cells assessed as induction of BTK degradation at 100 nM pretreated with ibrutinib for 2 hrs followed by compound treatment and measured after 8 hrs by Western blot analysis
[11] = target: T1, Protein cereblon/Tyrosine-protein kinase BTK; test: PROTAC activity at CRBN/BTK in human Ramos cells assessed as induction of BTK degradation at 100 nM pretreated with pomalidomide for 2 hrs followed by compound treatment and measured after 8 hrs by Western blot analysis
[12] = target: T1, Protein cereblon/Tyrosine-protein kinase BTK; test: PROTAC activity at CRBN/BTK in human Ramos cells assessed as induction of BTK degradation at 100 nM pretreated with MG132 for 2 hrs followed by compound treatment and measured after 8 hrs by Western blot analysis
[13] = target: T1, Protein cereblon/Tyrosine-protein kinase BTK; test: PROTAC activity at CRBN/BTK in human Ramos cells assessed as induction of BTK degradation at 100 nM pretreated with bafilomycin for 2 hrs followed by compound treatment and measured after 8 hrs by Western blot analysis
[14] = target: T1, Protein cereblon/Tyrosine-protein kinase BTK; test: PROTAC activity at CRBN/BTK in human Ramos cells assessed as induction of BTK degradation at 100 nM incubated for 24 hrs by Western blot analysis
[15] = target: T1, Protein cereblon/Tyrosine-protein kinase BTK; test: PROTAC activity at CRBN/BTK in human Ramos cells assessed as hook effect at 1000 nM incubated for 24 hrs by Western blot analysis
[16] = target: T1, Protein cereblon/Tyrosine-protein kinase BTK; test: PROTAC activity at CRBN/BTK in human MINO cells assessed as hook effect at >10000 nM incubated for 24 hrs by Western blot analysis

SMILES	Activity [1]	pEC50 [2]	Emax [3]	further results
Nc1ncnc2c1c(-c1ccc(Oc3ccccc3)cc1)nn2C1CCN(Cc2ccc(C#CC3CCN(c4cccc5c4C(=O)N(C4CCC(=O)NC4=O)C5=O)CC3)nc2)CC1 (centres undefined)	58.6%	7.34	95%	Activity [4]: Active
Nc1ncnc2c1c(-c1ccc(Oc3ccccc3)cc1)nn2C1CCN(Cc2ccc(C#CC3CCN(c4ccc5c(c4)C(=O)N(C4CCC(=O)NC4=O)C5=O)CC3)nc2)CC1 (centres undefined)	62.7%	7.29	97.8%	Activity [4]: Active
Nc1ncnc2c1c(-c1ccc(Oc3ccccc3)cc1)nn2C1CCN(CC2CN(CC3CN(c4ccc5c(c4)C(=O)N(C4CCC(=O)NC4=O)C5=O)C3)C2)CC1 (centres undefined)	31.5%	–	–	–
Nc1ncnc2c1c(-c1ccc(Oc3ccccc3)cc1)nn2C1CCN(CC2CCN(c3cccc4c3C(=O)N(C3CCC(=O)NC3=O)C4=O)CC2)CC1 (centres undefined)	–	–	–	Activity [14]: inactive
Nc1ncnc2c1c(-c1ccc(Oc3ccccc3)cc1)nn2C1CCN(CC2CN(CC3CN(c4cccc5c4C(=O)N(C4CCC(=O)NC4=O)C5=O)C3)C2)CC1 (centres undefined)	31.3%	–	–	–
Nc1ncnc2c1c(-c1ccc(Oc3ccccc3)cc1)nn2C1CCN(C(=O)CN2CCN(CC3CN(c4cccc5c4C(=O)N(C4CCC(=O)NC4=O)C5=O)C3)CC2)CC1 (centres undefined)	67.5%	8.14	97.6%	Activity [15]: Active; pEC50 [5]: 8.04; Emax [6]: 99.7%; Activity [16]: Active
Nc1ncnc2c1c(-c1ccc(Oc3ccccc3)cc1)nn2C1CCN(CC2CN(c3cccc4c3C(=O)N(C3CCC(=O)NC3=O)C4=O)C2)CC1 (centres undefined)	–	–	–	Activity [14]: inactive
Nc1ncnc2c1c(-c1ccc(Oc3ccccc3)cc1)nn2C1CCN(C(=O)CCCN2CCN(CCOCC(=O)Nc3ccc4c(c3)C(=O)N(C3CCC(=O)NC3=O)C4=O)CC2)CC1 (centres undefined)	40%	–	–	–
Nc1ncnc2c1c(-c1ccc(Oc3ccccc3)cc1)nn2C1CCN(C(=O)CCCN2CCN(C(=O)CCC(=O)Nc3ccc4c(c3)C(=O)N(C3CCC(=O)NC3=O)C4=O)CC2)CC1 (centres undefined)	41.8%	–	–	–
Nc1ncnc2c1c(-c1ccc(Oc3ccccc3)cc1)nn2C1CCN(C(=O)CN2CCN(C(=O)CCC(=O)Nc3ccc4c(c3)C(=O)N(C3CCC(=O)NC3=O)C4=O)CC2)CC1 (centres undefined)	61.5%	–	–	–
Nc1ncnc2c1c(-c1ccc(Oc3ccccc3)cc1)nn2C1CCN(C(=O)CN2CCN(C(=O)CCCC(=O)Nc3ccc4c(c3)C(=O)N(C3CCC(=O)NC3=O)C4=O)CC2)CC1 (centres undefined)	61.9%	–	–	–
Nc1ncnc2c1c(-c1ccc(Oc3ccccc3)cc1)nn2C1CCN(C(=O)c2ccc(N3CCN(c4ccc5c(c4)C(=O)N(C4CCC(=O)NC4=O)C5=O)CC3)nc2)CC1 (centres undefined)	71.7%	7.57	97.8%	Activity [4]: Active
Nc1ncnc2c1c(-c1ccc(Oc3ccccc3)cc1)nn2C1CCN(C(=O)CN2CCC(N3CCN(CC#Cc4ccc5c(c4)C(=O)N(C4CCC(=O)NC4=O)C5=O)CC3)CC2)CC1 (centres undefined)	57.8%	–	–	–
Nc1ncnc2c1c(-c1ccc(Oc3ccccc3)cc1)nn2C1CCN(C(=O)CN2CCN(CCOCC(=O)Nc3ccc4c(c3)C(=O)N(C3CCC(=O)NC3=O)C4=O)CC2)CC1 (centres undefined)	28.5%	–	–	–

Now from value to molecule, other results behind:

Activity [1]	pEC50 [2]	Emax [3]	SMILES	further results
99.7%	8.21	99.7%	Nc1ncnc2c1c(-c1ccc(Oc3ccccc3)cc1)nn2C1CCN(C(=O)CN2CCN(CC3CCN(c4ccc5c(c4)C(=O)N(C4CCC(=O)NC4=O)C5=O)CC3)CC2)CC1 (centres undefined)	Activity [4]: inactive; pEC50 [5]: 8.53; Emax [6]: 99.7%; Activity [7]: inactive; Activity [8]: Active; Activity [9]: 100%; Activity [10]: inactive; Activity [11]: inactive; Activity [12]: inactive; Activity [13]: Active
75.7%	7.20	92.4%	Nc1ncnc2c1c(-c1ccc(Oc3ccccc3)cc1)nn2C1CCN(CCOCCOCC(=O)Nc2ccc3c(c2)C(=O)N(C2CCC(=O)NC2=O)C3=O)CC1 (centres undefined)	–
47.4%	–	–	Nc1ncnc2c1c(-c1ccc(Oc3ccccc3)cc1)nn2C1CCN(C(=O)c2ccc(N3CCN(CC#Cc4ccc5c(c4)C(=O)N(C4CCC(=O)NC4=O)C5=O)CC3)nc2)CC1 (centres undefined)	–
91%	8.03	99.4%	Nc1ncnc2c1c(-c1ccc(Oc3ccccc3)cc1)nn2C1CCN(C(=O)CN2CCN(CC3CCN(c4cccc5c4C(=O)N(C4CCC(=O)NC4=O)C5=O)CC3)CC2)CC1 (centres undefined)	Activity [15]: Active; Activity [4]: Active; pEC50 [5]: 7.99; Emax [6]: 99.5%; Activity [16]: Active
36.2%	–	–	Nc1ncnc2c1c(-c1ccc(Oc3ccccc3)cc1)nn2C1CCN(CC2CN(CC3CCN(c4cccc5c4C(=O)N(C4CCC(=O)NC4=O)C5=O)CC3)C2)CC1 (centres undefined)	–
38.9%	–	–	Nc1ncnc2c1c(-c1ccc(Oc3ccccc3)cc1)nn2C1CCN(C(=O)CN2CCN(CCOCCOCC(=O)Nc3ccc4c(c3)C(=O)N(C3CCC(=O)NC3=O)C4=O)CC2)CC1 (centres undefined)	–
39.5%	–	–	Nc1ncnc2c1c(-c1ccc(Oc3ccccc3)cc1)nn2C1CCN(C(=O)CN2CCN(CC#Cc3ccc4c(c3)C(=O)N(C3CCC(=O)NC3=O)C4=O)CC2)CC1 (centres undefined)	–
33.6%	–	–	Nc1ncnc2c1c(-c1ccc(Oc3ccccc3)cc1)nn2C1CCN(C(=O)CN2CCC(CN3CCN(CC#Cc4ccc5c(c4)C(=O)N(C4CCC(=O)NC4=O)C5=O)CC3)CC2)CC1 (centres undefined)	–
55%	–	–	Nc1ncnc2c1c(-c1ccc(Oc3ccccc3)cc1)nn2C1CCN(C(=O)CCCN2CCN(CCOCCOCC(=O)Nc3ccc4c(c3)C(=O)N(C3CCC(=O)NC3=O)C4=O)CC2)CC1 (centres undefined)	–
